The target in the test is T1, Human M4 (Homo sapiens, UniProt P08173).
T1 construct: expressed in transfected cells; host or cells: CHO-K1 (ATCC), stably co-expressing chimeric G protein Gqi5
T1 sequence (P08173 1-479): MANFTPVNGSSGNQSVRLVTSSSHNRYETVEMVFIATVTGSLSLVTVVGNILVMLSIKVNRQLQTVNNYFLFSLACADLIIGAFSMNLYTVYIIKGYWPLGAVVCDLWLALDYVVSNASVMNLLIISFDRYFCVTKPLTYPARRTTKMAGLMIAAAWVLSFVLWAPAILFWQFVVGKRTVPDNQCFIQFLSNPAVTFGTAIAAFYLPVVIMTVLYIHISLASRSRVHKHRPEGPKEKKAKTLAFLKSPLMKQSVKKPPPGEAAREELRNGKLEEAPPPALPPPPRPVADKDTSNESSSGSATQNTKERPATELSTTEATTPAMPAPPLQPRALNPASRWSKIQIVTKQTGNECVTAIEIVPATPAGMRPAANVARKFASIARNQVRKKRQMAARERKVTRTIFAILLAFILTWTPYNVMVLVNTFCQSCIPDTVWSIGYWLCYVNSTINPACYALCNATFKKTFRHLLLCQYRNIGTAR
The experiment in a line: mAChR M4 cell-based functional assay (calcium flux, antagonist mode). The following applies: for remaining activity at 30 µM: % ACh maximum at 30 μM, read-out: Emin; for IC50: M4/Gqi5/CHO-K1 cells, concentration-dependent decrease of the EC80 acetylcholine response. As to the method:
Human or rat M4 cDNA, along with the chimeric G protein Gqi5, were transfected into Chinese hamster ovary (CHO-K1) cells purchased from the American Type Culture Collection using Lipofectamine2000. M4/Gqi5/CHO cells were grown in Ham's F-12 medium containing 10% heat-inactivated fetal bovine serum (FBS), 20 mM HEPES, 500 μg/mL G418 sulfate, and 200 μg/mL Hygromycin B.
For high throughput measurement of agonist-evoked increases in intracellular calcium, CHO-K1 cells stably expressing muscarinic receptors were plated in growth medium lacking G418 and hygromycin at 15,000 cells/20 μL/well in Greiner 384-well black-walled, tissue culture (TC)-treated, clear-bottom plates (VWR). Cells were incubated overnight at 37° C. and 5% CO2. The next day, cells were washed using an ELX 405 (BioTek) with assay buffer; the final volume was then aspirated to 20 μL, Next, 20 μL of a 2.3 μM stock of Fluo-4/acetoxymethyl ester (Invitrogen, Carlsbad, Calif.), prepared as a 2.3 μM stock in DMSO, mixed in a 1:1 ratio with 10% (w/v) Pluronic F-127 and diluted in assay buffer, was added to the wells and the cell plates were incubated for 50 min at 37° C. and 5% CO2. Dye was removed by washing with the ELX 405 and the final volume was aspirated to […]. Compound master plates were formatted in a 10 point concentration-response curve (CRC) format (1:3 dilutions) in 100% DMSO with a starting concentration of 10 or 1 mM using a BRAVO liquid handler (Agilent). Test compound CRCs were then transferred to daughter plates (240 nL) using the Echo acoustic plate reformatter (Labcyte, Sunnyvale, Calif.) and then diluted into assay buffer (40 μL) to a 2× stock using a Thermo Fisher Combi (Thermo Fisher Scientific, Waltham, Mass.).
Calcium flux was measured using the Functional Drug Screening System (FDSS) 6000 or 7000 (Hamamatsu Corporation, Tokyo, Japan) as an increase in the fluorescent static ratio. Compounds were applied to cells (20 μL, 2×) using the automated system of the FDSS at 2 seconds into the protocol and the data were collected at 1 Hz. At 143 s, 10 μL of an EC20 concentration of the muscarinic receptor agonist acetylcholine was added (5×), followed by the addition of 12 μL of an EC80 concentration of acetylcholine at the 268 s time point (5×). Agonist activity was analyzed as a concentration-dependent increase in calcium mobilization upon compound addition. Positive allosteric modulator activity was analyzed as a concentration-dependent increase in the EC20 acetylcholine response. Antagonist activity was analyzed as a concentration-dependent decrease in the EC80 acetylcholine response; for the purposes of the tables herein, an […] (inhibitory concentration 50) was calculated as a concentration-dependent decrease of the response elicited by an EC80 concentration of acetylcholine. Concentration-response curves were generated using a four-parameter logistical equation in XLFit curve fitting software (IDBS, Bridgewater, N.J.) for Excel (Microsoft, Redmond, Wash.) or Prism (GraphPad Software, Inc., San Diego, Calif.) or the Dotmatics software platform (Dotmatics, Bishop's Stortford, UK).
Compounds were synthesized as described above. Activity (IC50 and Emin) was determined in the mAChR M4 cell-based functional assay as described above and the data are shown in Table 4.

As a reminder, the IC50 is the point on the concentration scale where inhibition reaches its midpoint. With `Fc1ccc(Cl)c(-c2ccc(OC3CC4(CCN(Cc5ccccc5)CC4)C3)nn2)c1` [Compound 22, 7-benzyl-2-[6-(2-chloro-5-fluoro-phenyl)pyridazin-3-yl]oxy-7-azaspiro[3.5]nonane], the remaining activity at 30 µM amounted to 3.34% and the IC50 came out at 1270 nM.

For the compound `Cc1cccnc1CN1CCC2(CC1)CC(Oc1ccc(-c3cc(F)ccc3Cl)nn1)C2` [Compound 23, 2-[6-(2-chloro-5-fluoro-phenyl)pyridazin-3-yl]oxy-7-[(3-methyl-2-pyridyl)methyl]-7-azaspiro[3.5]nonane], the remaining activity at 30 µM is 3.36% and the IC50 turned out to be 900 nM.

In the case of `Cc1nn(C)cc1-c1ccc(OC2CC3(CCN(CC4CC5C=CC4C5)CC3)C2)nn1` (stereo not drawn) [Compound 24, 7-(5-bicyclo[2,2.1]hept-2-enylmethyl)-2-[6-(1,3-dimethylpyrazol-4-yl)pyridazin-3-yl]oxy-7-azaspiro[3.5]nonane], the remaining activity at 30 µM amounted to 2.76% and the IC50 came to 110 nM.

For the compound `Cc1nn(C)cc1-c1ccc(OC2CC3(CCN(CC(C)C(C)(C)C)CC3)C2)nn1` (stereo not drawn) [Compound 25, 2-[6-(1,3-dimethylpyrazol-4-yl)pyridazin-3-yl]oxy-7-(2,3,3-triniethylbutyl)-7-azaspiro[3.5]nonane], the remaining activity at 30 µM is 3.1% and the 50% inhibitory concentration (IC50) is 210 nM.

In the case of `Cc1nn(C)cc1-c1ccc(OC2CC3(CCN(CC4CCCCC4)CC3)C2)nn1` [Compound 26, 7-(cyclohexylmethyl)-2-[6-(1,3-dimethylpyrazol-4-yl)pyridazin-3-yl]oxy-7-azaspiro[3.5]nonane], the remaining activity at 30 µM turned out to be 4.43% and the IC50 is 630 nM.

As to `Cc1nn(C)cc1-c1ccc(OC2CC3(CCN(CC4CCOCC4)CC3)C2)nn1` [Compound 27, 2-[6-(1,3-dimethylpyrazol-4-yl)pyridazin-3-yl]oxy-7-(tetrahydropyran-4-ylmethyl)-7-azaspiro[3.5]nonane], the remaining activity at 30 µM was determined as 11.6% and the IC50 was determined as 4430 nM.

On to `Cc1nn(C)cc1-c1ccc(OC2CC3(CCN(CC4CCCOC4)CC3)C2)nn1` (stereo not drawn) [Compound 28, 2-[6-(1,3-dimethylpyrazol-4-yl)pyridazin-3-yl]oxy-7-(tetrahydropyran-3-ylmethyl)-7-azaspiro[3.5]nonane], for which the remaining activity at 30 µM turned out to be 17.1% and the IC50 was 5810 nM.

Turning to `Cc1nn(C)cc1-c1ccc(OC2CC3(CCN(CC4CCSCC4)CC3)C2)nn1` [Compound 29, 2-[6-(1,3-dimethylpyrazol-4-yl)pyridazin-3-yl]oxy-7-(tetrahydrothiopyran-4-ylmethyl)-7-azaspiro[3.5]nonane], the remaining activity at 30 µM was found to be 5.29% and the IC50 came out at 1170 nM.

In the case of `Cc1nn(C)cc1-c1ccc(OC2CC3(CCN(Cc4ccccc4)CC3)C2)nn1` [Compound 30, 7-benzyl-2-[6-(1,3-dimethylpyrazol-4-yl)pyridazin-3-yl]oxy-7-azaspiro[3.5]nonane], the remaining activity at 30 µM stood at 5.31% and the IC50 was found to be 1630 nM.

On to `Cc1cccnc1CN1CCC2(CC1)CC(Oc1ccc(-c3cn(C)nc3C)nn1)C2` [Compound 31, 2-[6-(1,3-dimethylpyrazol-4-yl)pyridazin-3-yl]oxy-7-[(3-methyl-2-pyridyl)methyl]-7-azaspiro[3.5]nonane], for which the remaining activity at 30 µM was found to be 8.05% and the IC50 stood at 2670 nM.

Regarding `Cc1cnn(C)c1-c1ccc(OC2CC3(CCN(CC4CC5C=CC4C5)CC3)C2)nn1` (stereo not drawn) [Compound 32, 7-(5-bicyclo[2.2.1]hept-2-enylmethyl)-2-[6-(2,4-dimethylpyrazol-3-yl)pyridazin-3-yl]oxy-7-azaspiro[3.5]nonane], the remaining activity at 30 µM is 3.96% and the IC50 was 160 nM.

With `Cc1cnn(C)c1-c1ccc(OC2CC3(CCN(CC(C)C(C)(C)C)CC3)C2)nn1` (stereo not drawn) [Compound 33, 2-[6-(2,4-dimethylpyrazol-3-yl)pyridazin-3-yl]oxy-7-(2,3,3-trimethylbutyl)-7-azaspiro[3.5]nonane], the remaining activity at 30 µM amounted to 3.87% and the IC50 stood at 250 nM.

Source of the values: patent US11149022B2, “Antagonists of the muscarinic acetylcholine receptor M4” (Vanderbilt University, priority 2017, dated 2021).
